The data set in a line: Drug blood concentration pattern in rats after donepezil administration. Conditions: rat, in vivo. On the procedure: More specifically, 3 mg/kg of donepezil was administered orally, 1 mg/kg of donepezil was administered subcutaneously, or 43 mg/kg of donepezil was administered using the microneedle patch prepared in the above example to rats, and the drug blood concentration patterns were compared.
Next, rats were administered donepezil at different concentrations of 43 mg/kg, 80 mg/kg, and 125 mg/kg using the microneedle patch prepared in the above example, respectively, and the drug blood concentration patterns were compared.
Next, after administering 80 mg/kg of donepezil to rats using the microneedle patch prepared in the above example, the drug blood concentration pattern was compared between the case where the needle was removed in 1 hour and the case where the needle was applied for 3 days.

The structures appear in SMILES notation.

`COc1cc2c(cc1OC)C(=O)C(CC1CCN(Cc3ccccc3)CC1)C2` (centres unmarked) [donepezil]: the “time in which drug blood concentration was very low” value reads like this: (po, 3 mg/kg) “about 1 day”; (sc, 1 mg/kg) “about 1 day”.

The values above are taken from patent US12721985B2, “Microneedle patch system for transdermal drug delivery” (INDUSTRY-ACADEMIC COOPERATION FOUNDATION GYEONGSANG …, priority 2021, dated 2026).
